Test results taken from patent US20260053171A1, “METHANOGEN INHIBITORS” (AGRIZERONZ LIMITED PARTNERSHIP, priority 2022, published 2026).

System: methane production in rumen fluid
Test: Rumen in vitro (RIV) assay, methane production from rumen fluid incubations
Format: cell-based, cattle
Details: Bos taurus, read-out: RIV % methane reduction +/− SD
Experimental: The compounds of the present invention were initially screened for activity using an in vitro fully automated incubation system for the measurement of total gas production and gas composition (methane and hydrogen). The system used is described in detail in the paper by Muetzel et al. (2014; Animal Feed Science and Technology 196, 1-11). The system in this specification is referred to as the rumen in vitro system or RIV. The RIV system provides a relatively simple tool for determining the rate and production of methane and also whether the rate and production of methane is inhibited or reduced by a particular compound or feed. Rumen in vitro assays use rumen fluid from donor animals (typically either sheep or cattle) which is typically combined with a buffer and then incubated in sealed fermentation vessels at 39° C. for either 24 or 48 h. These assays systems have been well-characterised and used by the scientific community over the last two decades (Rymer et al. 2005). The system that has been used here to characterise the effects of inhibitors on methane production and gas production, and the formation of H2, was described by Muetzel et al. (2014). Rumen in vitro assay systems reflect what can occur in the rumen in vivo, but only short-term, due to their short incubation times (typically not exceeding 48 h) which is limited by its buffering capacity and the fact that it is a closed system. Stock solutions of inhibitors were re-suspended in dimethylformamide (DMF) at concentrations 1000-fold higher than the highest used for the assays. Any further dilutions were also prepared using DMF. The total amount of inhibitor solution added to the rumen fluid-buffer mixture (60 mL) was 60 μl. Incubations used 60 ml of medium containing 12 ml of filtered rumen fluid and 48 ml of buffer in serum bottles for 24-48 h, essentially as described by Muetzel et al. (2014). Two fistulated cattle were used as donor animals for rumen fluid and treatments were incubated in duplicate bottles. Sets of duplicate incubation vials that contained ryegrass (with rumen fluid-buffer mixture), and ryegrass with 30 μM bromoethanesulfonate (BES) were also incubated as negative and positive controls, respectively. One experiment consists of 2 replicates of an inhibitor at any one concentration run at the same time, and a run can contain up to 32 bottle, including positive (30 µM BES) and negative (no inhibitor added) controls. Compound 1, for example, was tested using the 60 mL rumen in vitro assay system at 50 μM, 10 μM, and 2 μM final concentrations and compared to a positive control with 30 µM BES.

O=C(O)CCC(=O)N1N=C(c2cccc(-c3ccc(OC(F)(F)F)cc3)c2)CC1c1ccc2nccnc2c1 (centres unmarked) [Compound 14, 4-Oxo-4-(5-(quinoxalin-6-yl)-3-(4′-(trifluoromethoxy)-[1,1′-biphenyl]-3-yl)-4,5-dihydro-1H-pyrazol-1-yl)butanoic acid]
inhibition at 2 µM: < 5%
inhibition at 10 µM: 72.4 ± 0.8%
inhibition at 50 µM: 95.4%

O=C(O)CCC(=O)N1N=C(c2ccc(-c3cccc(Cl)c3)cc2)CC1c1ccc2nccnc2c1 (centres unmarked) [Compound 18, 4-(3-(3′-Chloro-[1,1′-biphenyl]-4-yl)-5-(quinoxalin-6-yl)-4,5-dihydro-1H-pyrazol-1-yl)-4-oxobutanoic acid]
inhibition at 2 µM: < 5%
inhibition at 10 µM: 83.6 ± 1.5%
inhibition at 50 µM: 94.1 ± 0.1%

CC(C)(C)S(=O)(=O)NC(=O)CCC(=O)N1N=C(c2ccc(Cl)cc2)CC1c1ccc2nccnc2c1 (centres unmarked) [Compound 121, N-(tert-Butylsulfonyl)-4-(3-(4-chlorophenyl)-5-(quinoxalin-6-yl)-4,5-dihydro-1H-pyrazol-1-yl)-4-oxobutanamide]
inhibition at 10 µM: 9.8 ± 2.2%

O=C(O)CCC(=O)N1N=C(c2ccc(Cl)cc2)CC1c1cnc2ccccc2n1 (centres unmarked) [Compound 32, 4-(3-(4-Chlorophenyl)-5-(quinoxalin-2-yl)-4,5-dihydro-1H-pyrazol-1-yl)-4-oxobutanoic acid]
inhibition at 10 µM: < 5%
inhibition at 50 µM: 81 ± 2%

O=C(O)CCC(=O)N1N=C(c2ccc(-c3ccc(CC(F)(F)F)cc3)cc2)CC1c1ccc2nccnc2c1 (centres unmarked) [Compound 88, 4-Oxo-4-(5-(quinoxalin-6-yl)-3-(4′-(2,2,2-trifluoroethyl)-[1,1′-biphenyl]-4-yl)-4,5-dihydro-1H-pyrazol-1-yl)butanoic acid]
inhibition at 2 µM: < 5%
inhibition at 10 µM: 83 ± 1.1%

COc1cccc(-c2ccc(C3=NN(C(=O)CCC(=O)O)C(c4ccc5nccnc5c4)C3)cc2)c1 (centres unmarked) [Compound 90, 4-(3-(3′-Methoxy-[1,1′-biphenyl]-4-yl)-5-(quinoxalin-6-yl)-4,5-dihydro-1H-pyrazol-1-yl)-4-oxobutanoic acid]
inhibition at 10 µM: 6.9 ± 2.2%
inhibition at 50 µM: 84.2%

CS(=O)(=O)NC(=O)CCC(=O)N1N=C(c2ccc(Cl)cc2)CC1c1ccc2nccnc2c1 (centres unmarked) [Compound 55, 4-(3-(4-Chlorophenyl)-5-(quinoxalin-6-yl)-4,5-dihydro-1-pyrazol-1-yl)-N-(methylsulfonyl)-4-oxobutanamide]
inhibition at 2 µM: < 5%
inhibition at 10 µM: 70 ± 4.5%
inhibition at 50 µM: 96.1 ± 0.5%

O=C(CCC(=O)N1N=C(c2ccc(-c3ccccc3)cc2)CC1c1ccc2nccnc2c1)NS(=O)(=O)c1ccccc1 (centres unmarked) [Compound 123, 4-(3-([1,1′-Biphenyl]-4-yl)-5-(quinoxalin-6-yl)-4,5-dihydro-1H-pyrazol-1-yl)-4-oxo-N-(phenylsulfonyl) butanamide]
inhibition at 2 µM: 7.4 ± 0.7%
inhibition at 10 µM: 77 ± 4.2%

O=C(O)CCC(=O)N1N=C(c2ccc(-c3ccc(N4CCCCC4)cc3)cc2)CC1c1ccc2nccnc2c1 (centres unmarked) [Compound 96, 4-Oxo-4-(3-(4′-(piperidin-1-yl)-[1,1′-biphenyl]-4-yl)-5-(quinoxalin-6-yl)-4,5-dihydro-1H-pyrazol-1-yl)butanoic acid]
inhibition at 10 µM: 8.2 ± 2.5%
inhibition at 50 µM: 73.3 ± 12.1%

O=C(O)CCC(=O)N1N=C(c2ccc(Cl)cc2)CC1c1cccc2nccnc12 (centres unmarked) [Compound 33, 4-(3-(4-Chlorophenyl)-5-(quinoxalin-5-yl)-4,5-dihydro-1H-pyrazol-1-yl)-4-oxobutanoic acid]
inhibition at 50 µM: 18.4 ± 3.7%

NC(=O)CCC(=O)N1N=C(c2ccc(Cl)cc2)CC1c1ccc2nccnc2c1 (centres unmarked) [Compound 113, 4-(3-(4-Chlorophenyl)-5-(quinoxalin-6-yl)-4,5-dihydro-1H-pyrazol-1-yl)-4-oxobutanamide]
inhibition at 50 µM: 15.6 ± 0.4%

O=C(O)CCCN1N=C(c2ccc(Cl)cc2)CC1c1ccc2nccnc2c1 (centres unmarked) [Compound 53, 4-(3-(4-Chlorophenyl)-5-(quinoxalin-6-yl)-4,5-dihydro-1H-pyrazol-1-yl)butanoic acid]
inhibition at 10 µM: 19.4 ± 1.9%
inhibition at 50 µM: 82.1 ± 1.2%

O=C(O)CCC(=O)N1N=C(c2ccc(Cl)cc2)CC1c1ccc(F)c(F)c1 (centres unmarked) [Compound 112, 4-(3-(4-Chlorophenyl)-5-(3,4-difluorophenyl)-4,5-dihydro-1H-pyrazol-1-yl)-4-oxobutanoic acid]
inhibition at 50 µM: 21.7 ± 0.9%

O=C(O)CCC(=O)N1N=C(c2ccc(-c3ccccc3)c(F)c2)CC1c1ccc2nccnc2c1 (centres unmarked) [Compound 110, 4-(3-(2-Fluoro-[1,1′-biphenyl]-4-yl)-5-(quinoxalin-6-yl)-4,5-dihydro-1H-pyrazol-1-yl)-4-oxobutanoic acid]
inhibition at 10 µM: 40.4 ± 7.6%

O=C(O)CCC(=O)N1N=C(c2ccc(-c3ccc(SC(F)(F)F)cc3)cc2)CC1c1ccc2nccnc2c1 (centres unmarked) [Compound 94, 4-Oxo-4-(5-(quinoxalin-6-yl)-3-(4′-((trifluoromethyl)thio)-[1,1′-biphenyl]-4-yl)-4,5-dihydro-1H-pyrazol-1-yl)butanoic acid]
inhibition at 10 µM: 32.7 ± 1.2%

O=C(CCC(=O)N1N=C(c2ccc(Cl)cc2)CC1c1ccc2nccnc2c1)NS(=O)(=O)c1ccccc1 (centres unmarked) [Compound 70, 4-(3-(4-Chlorophenyl)-5-(quinoxalin-6-yl)-4,5-dihydro-1H-pyrazol-1-yl)-4-oxo-N-(phenylsulfonyl) butanamide]
inhibition at 2 µM: 27.1 ± 13.1%
inhibition at 10 µM: 88.9 ± 1.5%

CC(C)Cc1ccc(-c2ccc(C3=NN(C(=O)CCC(=O)O)C(c4ccc5nccnc5c4)C3)cc2)cc1 (centres unmarked) [Compound 86, 4-(3-(4′-Isobutyl-[1,1′-biphenyl]-4-yl)-5-(quinoxalin-6-yl)-4,5-dihydro-1H-pyrazol-1-yl)-4-oxobutanoic acid]
inhibition at 10 µM: 29 ± 8.6%

O=C(CCC(=O)N1N=C(c2ccc(Cl)cc2)CC1c1ccc2nccnc2c1)NS(=O)(=O)N1CCCC1 (centres unmarked) [Compound 128, 4-(3-(4-Chlorophenyl)-5-(quinoxalin-6-yl)-4,5-dihydro-1H-pyrazol-1-yl)-4-oxo-N-(pyrrolidin-1-ylsulfonyl) butanamide]
inhibition at 10 µM: 53 ± 5.7%

O=C(O)CCC(=O)N1N=C(c2ccc(-c3ccccc3)cc2)CC1c1ccc2nonc2c1 (centres unmarked) [Compound 111, 4-(3-([1,1′-Biphenyl]-4-yl)-5-(benzo[c][1,2,5]oxadiazol-5-yl)-4,5-dihydro-1H-pyrazol-1-yl)-4-oxobutanoic acid]
inhibition at 10 µM: 43.3 ± 9%

Cc1ccc(C2=NN(C(=O)CCC(=O)O)C(c3ccc4nccnc4c3)C2)cc1 (centres unmarked) [Compound 2]
inhibition at 50 µM: 13.9%

COCc1ccc(-c2ccc(C3=NN(C(=O)CCC(=O)O)C(c4ccc5nccnc5c4)C3)cc2)cc1 (centres unmarked) [Compound 89, 4-(3-(4′-(Methoxymethyl)-[1,1′-biphenyl]-4-yl)-5-(quinoxalin-6-yl)-4,5-dihydro-1H-pyrazol-1-yl)-4-oxobutanoic acid]
inhibition at 10 µM: 21.9 ± 7%
inhibition at 50 µM: 85 ± 1.7%

O=C(O)/C=C/C(=O)N1N=C(c2ccc(Cl)cc2)CC1c1ccc2nccnc2c1 (centres unmarked) [Compound 51, (E)-4-(3-(4-Chlorophenyl)-5-(quinoxalin-6-yl)-4,5-dihydro-1H-pyrazol-1-yl)-4-oxobut-2-enoic acid]
inhibition at 50 µM: 57.1 ± 7.5%

CCCCOc1ccc(-c2ccc(C3=NN(C(=O)CCC(=O)O)C(c4ccc5nccnc5c4)C3)cc2)cc1 (centres unmarked) [Compound 80, 4-(3-(4′-Butoxy-[1,1′-biphenyl]-4-yl)-5-(quinoxalin-6-yl)-4,5-dihydro-1H-pyrazol-1-yl)-4-oxobutanoic acid]
inhibition at 2 µM: 21.9 ± 4.3%
inhibition at 10 µM: 89.4 ± 2.5%

O=C(O)c1ccc(N2N=C(c3ccc(Cl)cc3)CC2c2ccc3nccnc3c2)cc1 (centres unmarked) [Compound 115, 4-(3-(4-Chlorophenyl)-5-(quinoxalin-6-yl)-4,5-dihydro-1H-pyrazol-1-yl)benzoic acid]
inhibition at 10 µM: 20.1 ± 1.1%
inhibition at 50 µM: 84 ± 10.6%

O=C(O)CCC(=O)N1N=C2c3ccc(-c4ccc(OC(F)(F)F)cc4)cc3CCC2C1c1ccc2nccnc2c1 (centres unmarked) [Compound 76, 4-Oxo-4-(3-(quinoxalin-6-yl)-7-(4-(trifluoromethoxy)phenyl)-3,3a,4,5-tetrahydro-2H-benzo[g]indazol-2-yl)butanoic acid]
inhibition at 2 µM: 21.1 ± 3.2%
inhibition at 10 µM: 77.3 ± 1.3%
inhibition at 50 µM: 96.5%

COc1ccc(C2CC(c3ccc(Cl)cc3)=NN2C(=O)CCC(=O)O)cc1O (centres unmarked) [Compound 44, 4-(3-(4-Chlorophenyl)-5-(3-hydroxy-4-methoxyphenyl)-4,5-dihydro-1H-pyrazol-1-yl)-4-oxobutanoic acid]
inhibition at 50 µM: 31.3 ± 0.8%

CC(C)c1ccc(-c2ccc(C3=NN(C(=O)CCC(=O)O)C(c4ccc5nccnc5c4)C3)cc2)cc1 (centres unmarked) [Compound 24, 4-(3-(4′-Isopropyl-[1,1′-biphenyl]-4-yl)-5-(quinoxalin-6-yl)-4,5-dihydro-1H-pyrazol-1-yl)-4-oxobutanoic acid]
inhibition at 2 µM: 21.8%
inhibition at 10 µM: 94.1 ± 0.3%
inhibition at 50 µM: 97.8 ± 0.05%
